How the values were obtained:
Mus musculus [1] = species on record: Mus musculus; experiment: Inhibitory activity derived from Anastatica hierochuntica on D-Gal-induced cytotoxicity in primary cultured mouse hepatocytes at a concentration of 30 uM; assay type: functional; details: Hepatocyte
Mus musculus [2] = species on record: Mus musculus; experiment: Inhibitory activity derived from Anastatica hierochuntica on D-Gal-induced cytotoxicity in primary cultured mouse hepatocytes at a concentration of 0 uM; assay type: functional, Hepatocyte
Mus musculus [3] = species on record: Mus musculus; experiment: Inhibitory activity derived from Anastatica hierochuntica on D-Gal-induced cytotoxicity in primary cultured mouse hepatocytes at a concentration of 10 uM; assay type: functional; details: Hepatocyte
Mus musculus [4] = species on record: Mus musculus; experiment: Inhibitory activity derived from Anastatica hierochuntica on D-Gal-induced cytotoxicity in primary cultured mouse hepatocytes at a concentration of 3 uM; assay type: functional; details: Hepatocyte

Row | Compound | inhibition at 30 µM (Mus musculus [1]) | Inhibition (Mus musculus [2]) | inhibition at 10 µM (Mus musculus [3]) | inhibition at 3 µM (Mus musculus [4])
1 | COc1cc([C@H]2Oc3cc(O)cc(O)c3C(=O)[C@@H]2O)ccc1O | 36.7% | 0% | 7.3% | 4%
2 | O=C1c2c(O)cc(O)cc2O[C@@H](c2ccc(O)c(O)c2)[C@H]1O [(+)-EPITAXIFOLIN] | 21.7% | 0% | 11% | 2.1%
3 | O=C1c2c(O)cc(O)cc2O[C@H](c2ccc(O)c(O)c2)[C@H]1O [(+)-TAXIFOLIN] | 13% | 0% | 11.7% | 9.6%
4 | O=C1C[C@@H](c2ccc(O)cc2)Oc2cc3oc4cc(O)c(O)cc4c3c(O)c21 [ANASTATIN A] | 46.2% | 0% | 31.5% | 17.2%
5 | O=C1C[C@@H](c2ccc(O)cc2)Oc2c1c(O)cc1oc3cc(O)c(O)cc3c21 [ANASTATIN B] | 55% | 0% | 40.5% | 28.6%
6 | O=C1c2c(O)cc(O)cc2O[C@H](c2ccc(O)cc2)[C@H]1O [DIHYDROKAEMPFEROL] | 33.2% | 0% | 14.2% | 7.8%
7 | O=C1C[C@@H](c2ccc(O)c(O)c2)Oc2cc(O)cc(O)c21 [ERIODICTYOL] | 27.3% | 0% | 8.3% | 5.9%
8 | O=C1C[C@@H](c2ccc(O)cc2)Oc2cc(O)cc(O)c21 [NARINGENIN] | 43.1% | 0% | 9.3% | 2.9%
9 | COc1cc(C2Oc3cc([C@H]4Oc5cc(O)cc(O)c5C(=O)[C@@H]4O)ccc3OC2CO)ccc1O (stereo partly specified) [SILIBININ] | 45.2% | 0% | 7.7% | 4.8%
